Results reported in PubChem BioAssay AID1277 (The Scripps Research Institute Molecular Screening Center, 2008).
Activity calls are given as the source filed them. How the calls were made is not given here.

What follows are molecules tested against Neuropeptide Y receptor type 1 (Homo sapiens) (UniProt P25929) (assay: IC50 of human NPY-Y1 blockers – cell-based, dose response (AID 1277)). Settings: NPY-Y1 expressing cells, antagonist mode.
Neuropeptide Y receptor type 1 (Homo sapiens), sequence (P25929 whole entry, looked up): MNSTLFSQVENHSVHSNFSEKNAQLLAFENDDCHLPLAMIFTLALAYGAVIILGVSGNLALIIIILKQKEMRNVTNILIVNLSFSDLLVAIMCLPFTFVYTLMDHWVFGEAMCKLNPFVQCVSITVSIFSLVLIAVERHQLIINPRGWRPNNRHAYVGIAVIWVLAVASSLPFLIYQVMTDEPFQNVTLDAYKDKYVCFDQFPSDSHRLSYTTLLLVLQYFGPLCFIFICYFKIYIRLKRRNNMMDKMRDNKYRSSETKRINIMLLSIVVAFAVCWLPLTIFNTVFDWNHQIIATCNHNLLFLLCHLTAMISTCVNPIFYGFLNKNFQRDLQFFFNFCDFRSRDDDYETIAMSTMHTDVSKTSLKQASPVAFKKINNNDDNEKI

IC50	Compound
< 35 µM (inactive)	CC(C)CC(c1nnnn1C1CCCC1)N1CCN(c2ccccc2F)CC1 (centres undefined)
< 35 µM (inactive)	Cn1ccnc1C1CCCCN1Cc1nc(-c2ccc3c(c2)OCO3)no1 (centres undefined)
< 35 µM (inactive)	Cc1cc(C(=O)CSc2nc3ccccc3c(=O)n2C)c(C)n1CC1CCCO1 (centres undefined)
< 35 µM (inactive)	COc1cccc(Oc2cn[nH]c2-c2ccc(O)cc2O)c1
